Assay results taken from patent US20110230493A1, “1-OXA-8-Azaspiro [4,5] Decabe-8-Carboxamide Compounds as FAAH Inhibitors” (Pfizer Inc., priority 2008, published 2011).

Legend:
human FAAH = target: T1, human FAAH (Homo sapiens, UniProt O00519); assay: FAAH assay, human FAAH enzyme inactivation (kinact/Ki); assay type: biochemical; settings: oleamide 50 μM, 30° C.; for kinact/KI: pH 7.4, in vitro, read-out: hFAAH kinact/Ki; for hFAAH kinact/Ki: in vitro, pH 7.4
T1 construct: made in house; host or cells: E. coli
T1 sequence (O00519 1-579): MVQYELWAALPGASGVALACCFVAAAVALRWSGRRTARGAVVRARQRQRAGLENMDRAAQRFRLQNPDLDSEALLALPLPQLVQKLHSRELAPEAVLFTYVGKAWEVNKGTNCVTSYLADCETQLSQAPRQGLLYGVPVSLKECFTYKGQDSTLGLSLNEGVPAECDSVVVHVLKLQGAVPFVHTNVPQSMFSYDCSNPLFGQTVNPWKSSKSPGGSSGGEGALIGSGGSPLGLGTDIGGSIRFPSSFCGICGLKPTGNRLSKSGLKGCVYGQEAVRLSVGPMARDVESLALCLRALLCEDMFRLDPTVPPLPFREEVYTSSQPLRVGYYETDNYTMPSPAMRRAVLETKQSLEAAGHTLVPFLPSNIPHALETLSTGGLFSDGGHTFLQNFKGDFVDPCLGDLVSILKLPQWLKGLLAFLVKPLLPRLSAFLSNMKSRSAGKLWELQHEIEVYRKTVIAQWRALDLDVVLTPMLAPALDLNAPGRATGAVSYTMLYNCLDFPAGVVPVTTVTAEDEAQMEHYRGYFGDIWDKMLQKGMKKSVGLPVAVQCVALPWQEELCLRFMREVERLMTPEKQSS
Method in brief: (§1)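 Oleamide hydrolysis by 1-4 nM purified E. coli-expressed FAAH (substrate 50 μM = Km) coupled to GDH/NADH, pH 7.4 phosphate, 7.5% DMSO and EtOH, 30° C; A340 followed 90 min. kobs from mono-exponential fits; kinact/Ki from kobs-versus-concentration slope, multiplied by two.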

rat FAAH = target: T2, rat FAAH (Rattus norvegicus, UniProt P97612); assay: FAAH assay, rat FAAH enzyme inactivation (kinact/Ki); assay type: biochemical; settings: oleamide 50 μM, 30° C.; for kinact/KI: pH 7.4, in vitro, read-out: rFAAH kinact/Ki; for rFAAH kinact/Ki: in vitro, pH 7.4
T2 construct: made in house; host or cells: E. coli
T2 sequence (P97612 1-579): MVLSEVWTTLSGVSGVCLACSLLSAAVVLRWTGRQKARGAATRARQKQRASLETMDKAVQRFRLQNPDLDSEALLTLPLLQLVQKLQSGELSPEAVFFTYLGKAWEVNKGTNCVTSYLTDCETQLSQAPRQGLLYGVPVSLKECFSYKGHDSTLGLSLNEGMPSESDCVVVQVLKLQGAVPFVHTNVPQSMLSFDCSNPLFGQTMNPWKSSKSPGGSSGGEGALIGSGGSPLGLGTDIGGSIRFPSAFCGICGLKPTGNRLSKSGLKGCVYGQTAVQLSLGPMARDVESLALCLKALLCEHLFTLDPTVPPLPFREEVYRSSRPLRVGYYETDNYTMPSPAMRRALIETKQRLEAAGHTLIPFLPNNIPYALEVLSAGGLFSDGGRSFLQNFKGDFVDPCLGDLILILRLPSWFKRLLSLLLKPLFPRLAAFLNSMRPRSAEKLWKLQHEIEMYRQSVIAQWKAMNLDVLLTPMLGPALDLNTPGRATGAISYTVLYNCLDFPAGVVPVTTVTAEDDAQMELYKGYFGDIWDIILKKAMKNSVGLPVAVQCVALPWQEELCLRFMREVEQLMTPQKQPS
Method in brief: as §1

Male Sprague-Dawley Rats = assay: In vivo Complete Freund's Adjuvant (CFA) efficacy assay, inhibition of allodynia; set-up: species or system rat; key: (+) indicates the test compound was determined to be efficacious at 3 mpk, oral dosing; (−) indicates the test compound was determined to not be efficacious at 3 mpk, oral dosing; settings: 3 mpk, oral dosing; PWT four hours postdose; p < 0.05 vs vehicle group
Procedure: For additional information on the CFA efficacy assay, see Jayamanne et al., Brit. J. Pharmacol. 2006, 147, 281-288. Experiments were performed on adult Male Sprague-Dawley Rats (200 g-250 g). Inflammation was induced in the left hindpaw of the rat by an intra-plantar injection of 150 uL Complete Freund's Adjuvant (CFA) (SIGMA F5881). The CFA injection immediately induces local inflammation, paw swelling, and pain that persists for at least two weeks post-injection. Baseline paw withdrawal threshold (PWT) was measured to determine the percent inhibition of allodynia using a set of Von Frey Hairs on day 4 post injection as illustrated by the Dixon Up and Down Method (W. J. Dixon, Ann. Rev. Pharmacol. Toxicol. 1980, 20:441-462). […] Following Dose administration PWT threshold was evaluated again at four hours postdose. The Sprague-Dawley rats used in this assay were purchased from Harlan, 8520 Allison Pointe Blvd., Indianapolis, Ind., 46250, U.S.A. Sprague-Dawley rats are an outbred breed of albino rats first produced by the Sprague Dawley farms in Madison, Wis., U.S.A.
Percent Inhibition of Allodynia was determined by the formula: […]
ΔPWT measurements were averaged for each treatment group and statistical comparisons between groups were made using ANOVA and Dunnett's two-tailed test. […]

| Structure (SMILES) | kinact/KI (human FAAH) [M⁻¹ s⁻¹] | kinact/KI (rat FAAH) [M⁻¹ s⁻¹] | hFAAH kinact/Ki (human FAAH) [M⁻¹ s⁻¹] | rFAAH kinact/Ki (rat FAAH) [M⁻¹ s⁻¹] | CFA Efficacy (Male Sprague-Dawley Rats) |
| --- | --- | --- | --- | --- | --- |
| Cc1noc(NC(=O)N2CCC3(CC2)CC(c2cccc(OC(F)(F)F)c2)CO3)c1C (single isomer, unassigned) [Example 33, N-(3,4-dimethylisoxazol-5-yl)-3-[3-(trifluoromethoxy)phenyl]-1-oxa-8-azaspiro[4.5]decane-8-carboxamide] | 3420 | 4070 |  |  | (+) |
| Cc1noc(NC(=O)N2CCC3(CC2)CC(c2ccc(OCc4ccccc4Cl)c(Cl)c2)CO3)c1C (single isomer, unassigned) [Example 44, 3-{3-chloro-4-[(2-chlorobenzyl)oxy]phenyl}-N-(3,4-dimethylisoxazol-5-yl)-1-oxa-8-azaspiro[4.5]decane-8-carboxamide] |  |  | 1330 | 1950 | (+) |
| Cc1noc(NC(=O)N2CCC3(CC2)CC(c2cccc(OC(F)(F)F)c2)CO3)c1C (single isomer, unassigned) [Example 34, N-(3,4-dimethylisoxazol-5-yl)-3-[3-(trifluoromethoxy)phenyl]-1-oxa-8-azaspiro[4.5]decane-8-carboxamide] |  |  | 1840 | 2610 | (+) |
| O=C(Nc1cccnn1)N1CCC2(CC1)C[C@@H](c1cccc(Oc3ccc(Cl)cn3)c1)CO2 [Example 12, (3S)-3-{3-[(5-chloropyridin-2-yl)oxy]phenyl}-N-pyridazin-3-yl-1-oxa-8-azaspiro[4.5]decane-8-carboxamide] | 2190 | 2270 |  |  | (+) |
| Cc1noc(NC(=O)N2CCC3(CC2)CC(c2cc(F)cc(Cl)c2)CO3)c1C (single isomer, unassigned) [Example 39, 3-(3-chloro-5-fluorophenyl)-N-(3,4-dimethylisoxazol-5-yl)-1-oxa-8-azaspiro[4.5]decane-8-carboxamide] | 1810 |  |  | 1510 | (+) |

Further lines, with some results ahead:

| kinact/KI (human FAAH) [M⁻¹ s⁻¹] | kinact/KI (rat FAAH) [M⁻¹ s⁻¹] | hFAAH kinact/Ki (human FAAH) [M⁻¹ s⁻¹] | rFAAH kinact/Ki (rat FAAH) [M⁻¹ s⁻¹] | Structure (SMILES) | CFA Efficacy (Male Sprague-Dawley Rats) |
| --- | --- | --- | --- | --- | --- |
| 2110 | 2750 |  |  | Cc1noc(NC(=O)N2CCC3(CC2)C[C@@H](c2cccc(-c4ccc(F)cc4)c2)CO3)c1C [Example 60, (3S)—N-(3,4-dimethylisoxazol-5-yl)-3-(4′-fluorobiphenyl-3-yl)-1-oxa-8-azaspiro[4.5]decane-8-carboxamide] | (+) |
|  |  | 5480 | 974 | Cn1nnnc1NC(=O)N1CCC2(CC1)CC(c1noc(-c3ccc(C(F)(F)F)cc3)n1)CO2 (single isomer, unassigned) [Example 83, N-(1-methyl-1H-tetrazol-5-yl)-3-{5-[4-(trifluoromethyl)phenyl]-1,2,4-oxadiazol-3-yl}-1-oxa-8-azaspiro[4.5]decane-8-carboxamide] | (+) |
| 15900 | 4110 |  |  | Cn1nnnc1NC(=O)N1CCC2(CC1)C[C@@H](c1ccc(OCc3cccc(F)c3)cc1)CO2 [Example 87, (3S)-3-{4-[(3-fluorobenzyl)oxy]phenyl}-N-(1-methyl-1H-tetrazol-5-yl)-1-oxa-8-azaspiro[4.5]decane-8-carboxamide] | (+) |
| 7470 | 9110 |  |  | Cc1noc(NC(=O)N2CCC3(CC2)C[C@@H](c2ccc(OCc4ccc(Cl)cc4)cc2)CO3)c1C [Example 50, (3S)-3-{4-[(4-chlorobenzyl)oxy]phenyl}-N-(3,4-dimethylisoxazol-5-yl)-1-oxa-8-azaspiro[4.5]decane-8-carboxamide] | (−) |
| 4890 | 11200 |  |  | Cn1nnnc1NC(=O)N1CCC2(CC1)C[C@H](c1cccc(Oc3ccc(Cl)cn3)c1)CO2 [Example 81, 3-{3-[(5-chloropyridin-2-yl)oxy]phenyl}-N-(1-methyl-1H-tetrazol-5-yl)-1-oxa-8-azaspiro[4.5]decane-8-carboxamide] | (+) |
